Assay results reported in ChEMBL document CHEMBL1201862, “PubChem BioAssay data set” (2004).
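Interpolation was linear, between the two tested concentrations surrounding the appropriate level; five concentrations were tested over 48 hours in 96-well plates. Abbreviation: GI50, concentration required for 50% inhibition of growth.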 Calls of active or inactive are those of the source. Cut-off read from the data, not from the text of the source: active = GI50 up to about 1.1 µM and inactive = higher.

Tests used:
Test in all cases: inhibition of tumour cell growth, NCI panel, 48 h
[1] = tested on: MDA-MB-435
[2] = tested on: A498
[3] = tested on: NCI-H460
[4] = tested on: SF-295
[5] = tested on: MCF7
[6] = tested on: NCI-H226
[7] = tested on: OVCAR-8
[8] = tested on: SK-MEL-2
[9] = tested on: SF-268
[10] = tested on: UACC-62
[11] = tested on: OVCAR-4
[12] = tested on: K562
[13] = tested on: LOX IMVI
[14] = tested on: SNB-19
[15] = tested on: HCT-15
[16] = tested on: 786-0
[17] = tested on: NCI-H522
[18] = tested on: COLO 205
[19] = tested on: SK-MEL-5
[20] = tested on: A549
[21] = tested on: UACC-257
[22] = tested on: SN12C
[23] = tested on: RPMI-8226
[24] = tested on: UO-31
[25] = tested on: HT-29
[26] = tested on: RXF 393
[27] = tested on: U-251
[28] = tested on: HOP-62
[29] = tested on: CAKI-1
[30] = tested on: BT-549
[31] = tested on: DU-145
[32] = tested on: MDA-MB-231
[33] = tested on: NCI-H23
[34] = tested on: MDA-N
[35] = tested on: SK-MEL-28
[36] = tested on: ACHN
[37] = tested on: MOLT-4
[38] = tested on: EKVX
[39] = tested on: T47D
[40] = tested on: HCC 2998
[41] = tested on: Hs-578T
[42] = tested on: IGROV-1
[43] = tested on: HCT-116
[44] = tested on: OVCAR-5
[45] = tested on: M14
[46] = tested on: SK-OV-3
[47] = tested on: SF-539
[48] = tested on: TK-10
[49] = tested on: PC-3
[50] = tested on: HOP-92
[51] = tested on: SNB-75
[52] = tested on: SW-620
[53] = tested on: CCRF-CEM
[54] = tested on: Malme-3M
[55] = tested on: HL-60
[56] = tested on: KM12
[57] = tested on: NCI/ADR-RES

## C1CSCCCSCCSCCCSC1
[1]
  GI50: > 100 µM (inactive)
[2]
  GI50: > 100 µM (inactive)
[3]
  GI50: > 100 µM (inactive)
[4]
  GI50: > 100 µM (inactive)
[5]
  GI50: > 100 µM (inactive)
[6]
  GI50: > 100 µM (inactive)
[7]
  GI50: > 100 µM (inactive)
[8]
  GI50: > 100 µM (inactive)
[9]
  GI50: > 100 µM (inactive)
[10]
  GI50: > 100 µM (inactive)
[11]
  GI50: > 100 µM (inactive)
[12]
  GI50: > 100 µM (inactive)
[13]
  GI50: > 100 µM (inactive)
[14]
  GI50: > 100 µM (inactive)
[15]
  GI50: > 100 µM
[16]
  GI50: > 100 µM (inactive)
[17]
  GI50: 67.9 µM (inactive)
[18]
  GI50: > 100 µM (inactive)
[19]
  GI50: > 100 µM (inactive)
[20]
  GI50: > 100 µM (inactive)
[21]
  GI50: > 100 µM (inactive)
[22]
  GI50: > 100 µM (inactive)
[23]
  GI50: > 100 µM (inactive)
[24]
  GI50: > 100 µM (inactive)
[25]
  GI50: > 100 µM (inactive)
[26]
  GI50: > 100 µM (inactive)
[27]
  GI50: > 100 µM (inactive)
[28]
  GI50: > 100 µM (inactive)
[29]
  GI50: > 100 µM (inactive)
[30]
  GI50: > 100 µM (inactive)
[31]
  GI50: > 100 µM (inactive)
[32]
  GI50: > 100 µM (inactive)
[33]
  GI50: > 100 µM (inactive)
[34]
  GI50: > 100 µM (inactive)
[35]
  GI50: > 100 µM (inactive)
[36]
  GI50: > 100 µM (inactive)
[37]
  GI50: > 100 µM (inactive)
[38]
  GI50: > 100 µM (inactive)
[39]
  GI50: > 100 µM (inactive)
[40]
  GI50: > 100 µM (inactive)
[41]
  GI50: > 100 µM (inactive)
[42]
  GI50: > 100 µM (inactive)
[43]
  GI50: > 100 µM (inactive)
[44]
  GI50: > 100 µM (inactive)
[45]
  GI50: > 100 µM (inactive)
[46]
  GI50: > 100 µM (inactive)
[47]
  GI50: > 100 µM (inactive)
[48]
  GI50: > 100 µM (inactive)
[49]
  GI50: > 100 µM (inactive)
[50]
  GI50: > 100 µM (inactive)
[51]
  GI50: > 100 µM (inactive)
[52]
  GI50: > 100 µM (inactive)

## COc1ccc(/C=N\NC(=O)Nc2cccc3ccccc23)cc1
[1]
  GI50: 4.06 µM (inactive)
[2]
  GI50: 18.2 µM (inactive)
[3]
  GI50: 10 µM (inactive)
[5]
  GI50: 4.44 µM (inactive)
[6]
  GI50: 28.2 µM (inactive)
[7]
  GI50: > 10 µM (inactive)
[8]
  GI50: 9.14 µM (inactive)
[9]
  GI50: 17.7 µM (inactive)
[11]
  GI50: 15.6 µM (inactive)
[13]
  GI50: 13.1 µM (inactive)
[14]
  GI50: 17.1 µM (inactive)
[53]
  GI50: > 100 µM (inactive)
[15]
  GI50: 6.79 µM
[16]
  GI50: 11.4 µM (inactive)
[17]
  GI50: 15.6 µM (inactive)
[18]
  GI50: > 100 µM (inactive)
[19]
  GI50: 28.2 µM (inactive)
[20]
  GI50: 45.4 µM (inactive)
[21]
  GI50: 34.9 µM (inactive)
[22]
  GI50: 49.3 µM (inactive)
[23]
  GI50: > 100 µM (inactive)
[24]
  GI50: 35.3 µM (inactive)
[25]
  GI50: 8.97 µM (inactive)
[26]
  GI50: > 10 µM (inactive)
[27]
  GI50: 13.9 µM (inactive)
[28]
  GI50: 11 µM (inactive)
[54]
  GI50: 26.2 µM (inactive)
[29]
  GI50: 13.7 µM (inactive)
[55]
  GI50: 4.82 µM (inactive)
[30]
  GI50: 29.9 µM (inactive)
[31]
  GI50: 38.5 µM (inactive)
[32]
  GI50: 20.5 µM (inactive)
[33]
  GI50: 34.6 µM (inactive)
[34]
  GI50: 2.7 µM (inactive)
[35]
  GI50: > 100 µM (inactive)
[36]
  GI50: 14.5 µM (inactive)
[38]
  GI50: 26.9 µM (inactive)
[39]
  GI50: 14.1 µM (inactive)
[40]
  GI50: 47.5 µM (inactive)
[41]
  GI50: 6.75 µM (inactive)
[42]
  GI50: 17.3 µM (inactive)
[43]
  GI50: 13.7 µM (inactive)
[56]
  GI50: 11.7 µM (inactive)
[57]
  GI50: 22 µM (inactive)
[44]
  GI50: > 100 µM (inactive)
[45]
  GI50: 35.4 µM (inactive)
[47]
  GI50: 14 µM (inactive)
[48]
  GI50: 20.7 µM (inactive)
[49]
  GI50: 20.8 µM (inactive)
[50]
  GI50: 21.4 µM (inactive)
[51]
  GI50: 9.98 µM (inactive)
[52]
  GI50: 51.6 µM (inactive)
